{"source": "patent US6642251B1", "about": "“Geometrically restricted 2-indolinone derivatives as modulators of protein kinase activity” (Sugen, Inc., priority 1998, dated 2003); for Pyk2, outcome of primary assay: key: DNH = did not hit in primary assay; for bio SRC, outcome of primary assay: key: DNH = did not hit in primary assay; for cell IGF, outcome of primary assay: key: DNH = did not hit in primary assay", "key": {"EGFR": {"molecular_target": "EGFR (Homo sapiens, UniProt P00533)", "sequence (P00533 25-1210)": "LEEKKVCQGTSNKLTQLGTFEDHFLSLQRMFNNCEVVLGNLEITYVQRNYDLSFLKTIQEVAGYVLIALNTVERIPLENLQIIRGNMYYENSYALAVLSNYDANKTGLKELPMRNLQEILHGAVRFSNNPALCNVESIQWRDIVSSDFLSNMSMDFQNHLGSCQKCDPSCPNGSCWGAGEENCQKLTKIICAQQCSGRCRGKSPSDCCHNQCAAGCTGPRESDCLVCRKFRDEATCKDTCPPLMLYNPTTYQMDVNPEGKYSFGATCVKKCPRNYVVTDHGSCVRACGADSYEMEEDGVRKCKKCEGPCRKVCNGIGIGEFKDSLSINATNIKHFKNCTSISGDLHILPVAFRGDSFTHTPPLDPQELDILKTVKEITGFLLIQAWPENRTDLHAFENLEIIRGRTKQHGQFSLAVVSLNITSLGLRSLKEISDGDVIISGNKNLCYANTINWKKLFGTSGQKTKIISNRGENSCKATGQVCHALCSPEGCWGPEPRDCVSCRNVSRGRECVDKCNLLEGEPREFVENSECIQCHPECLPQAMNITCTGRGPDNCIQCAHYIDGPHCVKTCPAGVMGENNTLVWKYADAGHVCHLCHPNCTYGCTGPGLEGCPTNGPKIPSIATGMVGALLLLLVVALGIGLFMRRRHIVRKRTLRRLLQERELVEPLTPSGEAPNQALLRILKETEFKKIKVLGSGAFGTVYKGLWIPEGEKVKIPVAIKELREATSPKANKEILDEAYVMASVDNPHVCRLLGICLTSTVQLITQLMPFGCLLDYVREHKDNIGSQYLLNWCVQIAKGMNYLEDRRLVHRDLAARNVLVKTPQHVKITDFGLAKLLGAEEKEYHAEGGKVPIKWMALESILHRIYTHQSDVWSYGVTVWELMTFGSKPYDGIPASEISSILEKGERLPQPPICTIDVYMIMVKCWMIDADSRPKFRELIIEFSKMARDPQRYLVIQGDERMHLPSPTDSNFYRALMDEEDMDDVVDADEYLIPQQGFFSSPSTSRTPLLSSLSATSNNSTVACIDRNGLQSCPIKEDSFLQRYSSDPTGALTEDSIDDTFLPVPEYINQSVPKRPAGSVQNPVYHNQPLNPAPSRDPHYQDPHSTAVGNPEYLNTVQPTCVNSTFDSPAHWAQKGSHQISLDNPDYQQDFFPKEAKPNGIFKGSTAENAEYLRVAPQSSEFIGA", "test": "Biochemical EGFR assay (bio EGFR), ELISA", "parameters": "A431 cell lysate (Screening Lab, SUGEN, Inc.); endogenous in cells; host or cells: A431", "conditions": "50% inhibition of target PTK activity; read-out: bio EGFR (Page 5) IC50", "experimental": "This assay measures the in vitro kinase activity of EGFR using ELISA.\n6. A431 cell lysate (Screening Lab, SUGEN, Inc.)\n1. Coat Corning 96 well ELISA plates with 0.5 μg […] in\n100 μl PBS per well, store overnight at 4° C.\n2. Remove unbound SUMO1 from wells by inverting plate to remove liquid. Wash 1× with dH2O. Pat the plate on a paper towel to remove excess liquid.\n(§1) 3. Add 150 μl of Blocking Buffer to each well. Incubate for 30 min. at room temperature with shaking.\n(§2) 4. Wash plate 3× with deionized water, then once with TBST. Pat plate on a paper towel to remove excess liquid and bubbles.\n5. Dilute lysate in PBS (7 μg lysate/100 μl PBS).\n(§3) 6. Add 100 μl of diluted lysate to each well. Shake at room temperature for 60 min.\n(§4) 7. Wash plates as described in 4, above.\n8. Add 120 μl TBS to ELISA plate containing captured EGFR.\n9. Dilute test compound 1:10 in TBS in 96-well polypropylene plates (ie. 10 μl compound+90 μl TBS).\n10. Add 13.5 μl diluted test compound to ELISA plate.\n(§5) 11. Incubate for 30 minutes while shaking at room temperature.\n13. After 5 minutes, stop reaction by adding 16.5 μl of 200 mM EDTA (pH 8.0) to each well, shaking continuously. After the EDTA has been added, shake for 1 min.\n(§6) 14. Wash 4× with deionized water, twice with TBST.\n15. Add 100 μl anti-phosphotyrosine (1:3000 dilution.in TBST) per well. Incubate 30-45 min. at room temperature, with shaking.\n(§7) 16. Wash as described in 4, above.\n17. Add 100 μl Biosource Goat anti-rabbit IgG peroxidase conjugate (1:2000 dilution in TBST) to each well. Incubate 30 min. at room temperature, with shaking.\n(§8) 18. Wash as described in 4, above.\n(§9) 19. Add 100 μl of ABTS/H2O2 solution to each well.\n20. Incubate 5 to 10 minutes with shaking. Remove any bubbles.\n(§10) 21. If necessary stop reaction with the addition of 100 μl 0.2 M HCl per well.\n22. Read assay on Dynatech MR7000 ELISA reader. Test Filter: 410 nM Reference Filter: 630 nM"}, "PDGFR": {"molecular_target": "T1, PDGFR (Homo sapiens, UniProt P09619)", "T1 construct": "expressed in transfected cells; host or cells: NIH 3T3", "T1 sequence (P09619 33-1106, species assumed)": "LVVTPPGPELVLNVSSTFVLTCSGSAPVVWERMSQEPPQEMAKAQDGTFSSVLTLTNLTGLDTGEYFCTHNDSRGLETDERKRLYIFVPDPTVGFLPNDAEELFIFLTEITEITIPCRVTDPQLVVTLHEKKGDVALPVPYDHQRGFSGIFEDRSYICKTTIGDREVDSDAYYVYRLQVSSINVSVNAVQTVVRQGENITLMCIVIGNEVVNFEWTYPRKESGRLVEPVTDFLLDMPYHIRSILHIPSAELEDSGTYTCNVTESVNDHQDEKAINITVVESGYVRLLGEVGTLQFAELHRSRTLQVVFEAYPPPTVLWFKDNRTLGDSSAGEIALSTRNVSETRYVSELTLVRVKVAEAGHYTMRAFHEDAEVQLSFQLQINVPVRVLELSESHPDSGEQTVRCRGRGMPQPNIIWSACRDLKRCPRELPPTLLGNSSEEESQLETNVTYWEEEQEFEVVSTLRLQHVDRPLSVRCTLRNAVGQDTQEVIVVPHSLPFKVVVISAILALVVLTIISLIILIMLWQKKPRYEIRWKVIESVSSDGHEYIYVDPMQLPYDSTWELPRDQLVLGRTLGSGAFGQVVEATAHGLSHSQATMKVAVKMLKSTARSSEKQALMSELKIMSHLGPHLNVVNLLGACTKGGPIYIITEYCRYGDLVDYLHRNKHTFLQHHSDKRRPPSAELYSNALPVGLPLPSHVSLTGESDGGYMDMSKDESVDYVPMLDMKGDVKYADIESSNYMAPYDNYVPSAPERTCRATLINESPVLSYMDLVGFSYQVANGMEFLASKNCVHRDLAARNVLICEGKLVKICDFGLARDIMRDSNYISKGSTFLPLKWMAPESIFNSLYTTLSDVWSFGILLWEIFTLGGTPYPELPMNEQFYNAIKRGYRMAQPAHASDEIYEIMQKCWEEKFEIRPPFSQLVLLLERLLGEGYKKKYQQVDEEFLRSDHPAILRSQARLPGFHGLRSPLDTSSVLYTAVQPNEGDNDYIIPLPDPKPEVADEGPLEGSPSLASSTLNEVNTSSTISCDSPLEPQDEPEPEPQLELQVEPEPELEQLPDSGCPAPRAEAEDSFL", "test": "Biochemical PDGFR assay (bio PDGFR), ELISA", "conditions": "50% inhibition of target PTK activity; read-out: bio PDGFR IC50", "experimental": "This assay measures the in vitro kinase activity of PDGFR using ELISA.\n6. PDGFR-β expressing NIH 3T3 cell lysate (Screening Lab, SUGEN, Inc.).\n1. Coat Corning 96 well ELISA plates with 0.5 μg 28D4C10 in 100 μl PBS per well, store overnight at 4° C.\n2. Remove unbound 28D4C10 from wells by inverting plate to remove liquid. Wash 1× with dH2O. Pat the plate on a paper towel to remove excess liquid.\nas §1, §2\n5. Dilute lysate in HNTG (10 μg lysate/100 μl HNTG)\nas §3, §4\n8. Add 80 μl working kinase buffer mix to ELISA plate containing captured PDGFR.\n10. Add 10 μl diluted test compound to ELISA plate.\nas §5\n12. Add 10 μl ATP directly to all wells except negative control well (final well volume should be approximately 100 μl with 20 μM ATP in each well.) Incubate 30 minutes while shaking.\n13. After 30 minutes, stop reaction by adding 10 μl of 200 mM EDTA (pH 8.0) to each well.\nas §6\n15. Add 100 μl anti-phosphotyrosine (1:3000 dilution in TBST) per well. Incubate 30-45 min. at room temperature, with shaking.\nas §7\n17. […] Incubate 30 min. at room temperature, with shaking.\nas §8, §9\n20. Incubate 10 to 30 minutes with shaking. Remove any bubbles.\nas §10"}, "IGF-1 receptor": {"molecular_target": "T2, IGF-1 receptor (Homo sapiens, UniProt P08069)", "T2 construct": "expressed in transfected cells; host or cells: NIH3T3/IGF-1R", "T2 sequence (P08069 31-1367)": "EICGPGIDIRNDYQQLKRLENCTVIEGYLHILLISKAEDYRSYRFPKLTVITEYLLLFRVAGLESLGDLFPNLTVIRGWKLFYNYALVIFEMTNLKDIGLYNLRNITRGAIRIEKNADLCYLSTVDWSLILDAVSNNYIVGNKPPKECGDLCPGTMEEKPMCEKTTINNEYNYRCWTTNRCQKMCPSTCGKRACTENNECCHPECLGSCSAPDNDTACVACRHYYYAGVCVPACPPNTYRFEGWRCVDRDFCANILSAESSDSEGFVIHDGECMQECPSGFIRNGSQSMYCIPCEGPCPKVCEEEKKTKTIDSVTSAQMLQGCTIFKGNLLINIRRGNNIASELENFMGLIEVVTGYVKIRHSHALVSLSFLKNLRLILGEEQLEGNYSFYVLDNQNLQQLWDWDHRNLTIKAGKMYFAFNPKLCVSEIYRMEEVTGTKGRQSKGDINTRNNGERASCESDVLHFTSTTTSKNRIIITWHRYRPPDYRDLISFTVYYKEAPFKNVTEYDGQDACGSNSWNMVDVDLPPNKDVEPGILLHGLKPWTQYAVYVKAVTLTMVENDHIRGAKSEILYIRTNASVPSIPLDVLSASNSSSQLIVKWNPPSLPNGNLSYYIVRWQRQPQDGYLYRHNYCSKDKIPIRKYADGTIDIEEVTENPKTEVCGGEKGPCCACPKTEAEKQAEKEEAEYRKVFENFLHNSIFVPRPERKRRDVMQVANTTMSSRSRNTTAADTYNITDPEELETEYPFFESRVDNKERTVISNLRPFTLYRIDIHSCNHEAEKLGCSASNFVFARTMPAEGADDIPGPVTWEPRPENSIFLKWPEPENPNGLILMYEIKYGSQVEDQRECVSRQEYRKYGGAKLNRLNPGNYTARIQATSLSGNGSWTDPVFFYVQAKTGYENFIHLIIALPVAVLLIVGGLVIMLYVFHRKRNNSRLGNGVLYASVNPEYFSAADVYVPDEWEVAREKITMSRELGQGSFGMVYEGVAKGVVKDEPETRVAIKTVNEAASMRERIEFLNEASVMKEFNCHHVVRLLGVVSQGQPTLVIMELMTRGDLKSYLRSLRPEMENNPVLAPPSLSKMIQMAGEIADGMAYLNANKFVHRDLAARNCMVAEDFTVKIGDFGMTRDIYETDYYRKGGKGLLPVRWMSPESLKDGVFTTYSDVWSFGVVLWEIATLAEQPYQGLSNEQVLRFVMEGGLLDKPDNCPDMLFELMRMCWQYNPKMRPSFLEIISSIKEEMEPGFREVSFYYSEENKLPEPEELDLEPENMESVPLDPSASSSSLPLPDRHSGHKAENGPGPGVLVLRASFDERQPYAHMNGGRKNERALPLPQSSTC", "test": "Cellular IGF-1 receptor assay (cell IGF)", "assay_type": "cell-based", "experimental": "The following protocol may be used to measure phosphotyrosine level on IGF-1 receptor, which indicates IGF-1 receptor tyrosine kinase activity.\na. The cell line used in this assay is 3T3/IGF-1R, a cell line genetically engineered to overexpresses IGF-1 receptor.\n2. […] Incubate for 1 day then replace medium to serum-free medium (90/μl) and incubate in 5% CO2 and 37° C. overnight.\n2. Remove the coating solution, and replace with 100 μl Blocking Buffer, and shake for 30 minutes. Remove the blocking buffer and wash the plate just before adding lysate.\n1. The drugs are tested under serum-free condition.\n2. Dilute drug stock (in 100% DMSO) 1:10 with DMEM in 96-well poly-propylene plate, and transfer 10 μl/well of this solution to the cells to achieve final drug dilution 1:100, and final DMSO concentration of 1.0%. Incubate the cells in 5% CO2 at 37° C. for 2 hours.\n3. Prepare fresh cell lysis buffer (HNTG*)\n4. After drug incubation for two hours, transfer 10 μl/well of 200 nM IGF-1 Ligand in PBS to the cells (Final Conc. is 20 nM), and incubate at 5% CO2 at 37° C. for 10 minutes.\n5. Remove media and add 100 μl/well HNTG* and shake for 10 minutes. Look at cells under microscope to see if they are adequately lysed.\n6. Use a 12-channel pipette to scrape the cells from the plate, and homogenize the lysate by repeated aspiration and dispensing. Transfer all the lysate to the antibody coated ELISA plate, and shake for 1 hour.\n7. Remove the lysate, wash the plate, transfer anti-pTyr (1:3,000 with TBST) 100 μl/well, and shake for 30 minutes.\n8. Remove anti-pTyr, wash the plate, transfer TAGO (1:3,000 with TBST) 100 μl/well, and shake for 30 minutes.\n9. Remove detection antibody, wash the plate, and transfer fresh ABTS/H2O2 (1.2 μl H2O2 to 10 ml ABTS) 100 μl/well to the plate to start color development.\n10. Measure OD at 410 nm with a reference wavelength of 630 nm in Dynatec MR5000."}, "Pyk2": {"molecular_target": "Pyk2 (Homo sapiens, UniProt Q14289)", "sequence (Q14289 whole entry, species assumed)": "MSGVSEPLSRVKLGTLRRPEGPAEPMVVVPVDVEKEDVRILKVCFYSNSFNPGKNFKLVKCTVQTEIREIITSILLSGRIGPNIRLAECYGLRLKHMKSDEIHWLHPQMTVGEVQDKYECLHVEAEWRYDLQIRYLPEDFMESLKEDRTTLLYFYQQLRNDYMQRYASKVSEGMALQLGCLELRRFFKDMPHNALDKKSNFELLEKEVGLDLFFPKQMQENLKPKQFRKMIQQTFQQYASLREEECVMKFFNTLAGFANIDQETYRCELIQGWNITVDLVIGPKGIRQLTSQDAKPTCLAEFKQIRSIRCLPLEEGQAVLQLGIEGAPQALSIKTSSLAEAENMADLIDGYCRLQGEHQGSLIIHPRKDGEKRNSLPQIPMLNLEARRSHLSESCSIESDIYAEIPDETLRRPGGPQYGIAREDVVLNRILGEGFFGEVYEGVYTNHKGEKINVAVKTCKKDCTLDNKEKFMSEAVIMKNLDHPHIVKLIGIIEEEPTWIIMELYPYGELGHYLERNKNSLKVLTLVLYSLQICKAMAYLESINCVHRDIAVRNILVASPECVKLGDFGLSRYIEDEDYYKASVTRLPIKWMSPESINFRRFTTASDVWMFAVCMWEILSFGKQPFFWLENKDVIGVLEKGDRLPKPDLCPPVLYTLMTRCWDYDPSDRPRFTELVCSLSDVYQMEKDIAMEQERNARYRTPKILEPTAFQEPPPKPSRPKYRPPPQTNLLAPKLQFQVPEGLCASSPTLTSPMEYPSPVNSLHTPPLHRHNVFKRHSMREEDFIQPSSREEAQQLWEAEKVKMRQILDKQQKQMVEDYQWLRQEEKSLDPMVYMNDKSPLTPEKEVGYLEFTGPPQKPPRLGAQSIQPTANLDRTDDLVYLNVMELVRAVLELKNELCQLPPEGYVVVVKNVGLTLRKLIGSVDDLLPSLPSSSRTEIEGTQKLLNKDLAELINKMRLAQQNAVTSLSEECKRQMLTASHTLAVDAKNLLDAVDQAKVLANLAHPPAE", "test": "Pyk2 assay", "assay_type": "biochemical"}, "src protein kinase": {"molecular_target": "T3, src protein kinase (Gallus gallus, UniProt P00523)", "T3 construct": "made in house; host or cells: Schizosaccharomyces pombe strain SP200", "test": "Biochemical src assay (bio SRC)", "experimental": "This assay is used to determine src protein kinase activity measuring phosphorylation of a biotinylated peptide as the readout.\na. Yeast transformed with src (Sugen, Inc., Redwood City, Calif.).\n1. Coat ELISA plate with 0.5 μg/well anti-src mab in 100 μl of pH 9.6 sodium carbonate buffer; hold at 4° C. overnight.\n2. Wash wells once with PBS.\n3. Block plate with 0.15 ml 5% milk in PBS for 30 min. at room temperature.\n4. Wash plate 5× with PBS.\n5. Add 10 μg/well of src transformed yeast lysates diluted in Lysis Buffer (0.1 ml total volume per well). (Amount of lysate may vary between batches.) Shake plate for 20 minutes at room temperature.\n1. 4G10 plate: coat 0.5 μg/well 4G10 in 100 μl PBS overnight at 4° C. and block with 150 μl of 5% milk in PBS for 30 minutes at room temperature.\n1. Remove unbound proteins.from plates and wash plates 5× with PBS.\n2. Add 0.08 ml Kinase Reaction Mixture per well (containing 10 μl of 10×-Kinase Buffer and 10 μM (final concentration) biotin-EEEYEEYEEEYEEEYEEEY per well diluted in water.\n3. Add 10 μl of compound diluted in water containing 10% DMSO and pre-incubate for 15 minutes at room temperature.\n4. Start kinase reaction by adding 10 μl/well of 0.05 mM ATP in water (5 μM ATP final).\n5. Shake ELISA plate for 15 min. at room temperature.\n6. Stop kinase reaction by adding 10 μl of 0.5 M EDTA per well.\n7. Transfer 90 μl supernatant to a blocked 4G10 coated ELISA plate.\n8. Incubate for 30 min. while shaking at room temperature.\n9. Wash plate 5× with TBST.\n10. Incubate with Vectastain ELITE ABC reagent (100 μl/well) for 30 min. at room temperature.\n11. Wash the wells 5× with TBST.\n12. Develop with Turbo TMB."}}}
{"smiles": "COc1ccc2c(c1)/C(=C1\\C(=O)Nc3ccccc31)CC2", "note": "[Compound 4, 3-(6-Methoxyindan-1-ylidene)-1,3-dihydroindol-2-one]", "values": [{"measurement": "IC50", "setting": "EGFR", "result": "> 100", "unit": "µM"}, {"measurement": "IC50", "setting": "PDGFR", "result": "> 100", "unit": "µM"}, {"measurement": "cell IGF, outcome of primary assay", "setting": "IGF-1 receptor; primary assay", "result": "DNH"}, {"measurement": "Pyk2, outcome of primary assay", "setting": "Pyk2; primary assay", "result": "DNH"}, {"measurement": "bio SRC, outcome of primary assay", "setting": "src protein kinase; primary assay", "result": "DNH"}]}
{"smiles": "Nc1ccc2c(c1)CC/C2=C1/C(=O)Nc2ccccc21", "note": "[Compound 6, 3-(5-Aminoindan-1-ylidene)-1,3-dihydroindol-2-one]", "values": [{"measurement": "IC50", "setting": "EGFR", "result": "> 100", "unit": "µM"}, {"measurement": "IC50", "setting": "PDGFR", "result": 5.5, "unit": "µM"}, {"measurement": "cell IGF % Inh", "setting": "IGF-1 receptor; concentration not given", "result": 96.7, "unit": "% Inh"}, {"measurement": "IC50", "setting": "Pyk2; 50% inhibition of target PTK activity, read-out: Pyk2 IC50", "result": 8.1, "unit": "µM"}, {"measurement": "IC50", "setting": "src protein kinase; 50% inhibition of target PTK activity", "result": "> 100", "unit": "µM"}]}
